Assay results from PubChem BioAssay (NCI).
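GI50 marks 50% less growth. TGI: concentration producing complete growth inhibition.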

Legend:
Assay in all cases: DTP human tumour cell line panel, 384-well format
[1] = tested on: 786-0 renal
[2] = tested on: A498 renal
[3] = tested on: A549 NSCLC
[4] = tested on: ACHN renal
[5] = tested on: BT-549 breast
[6] = tested on: CAKI-1 renal
[7] = tested on: CCRF-CEM leukemia
[8] = tested on: COLO 205 colon
[9] = tested on: DU-145 prostate
[10] = tested on: EKVX NSCLC
[11] = tested on: HCC-2998 colon
[12] = tested on: HCT-116 colon
[13] = tested on: HCT-15 colon
[14] = tested on: HL-60(TB) leukemia
[15] = tested on: HOP-62 NSCLC
[16] = tested on: HOP-92 NSCLC
[17] = tested on: HS 578T breast
[18] = tested on: HT29 colon
[19] = tested on: IGROV1 ovarian
[20] = tested on: K-562 leukemia
[21] = tested on: KM12 colon
[22] = tested on: LOX IMVI melanoma
[23] = tested on: M14 melanoma
[24] = tested on: MALME-3M melanoma
[25] = tested on: MCF7 breast
[26] = tested on: MDA-MB-231 breast
[27] = tested on: MDA-MB-435 melanoma
[28] = tested on: MDA-MB-468 breast
[29] = tested on: MOLT-4 leukemia
[30] = tested on: NCI-H226 lung
[31] = tested on: NCI-H23 lung
[32] = tested on: NCI-H322M lung
[33] = tested on: NCI-H460 NSCLC
[34] = tested on: NCI-H522 lung
[35] = tested on: NCI/ADR-RES ovarian
[36] = tested on: OVCAR-3 ovarian
[37] = tested on: OVCAR-4 ovarian
[38] = tested on: OVCAR-5 ovarian
[39] = tested on: OVCAR-8 ovarian
[40] = tested on: PC-3 prostate
[41] = tested on: RPMI-8226 leukemia
[42] = tested on: RXF 393 renal
[43] = tested on: SF-268 CNS
[44] = tested on: SF-295 CNS
[45] = tested on: SF-539 CNS
[46] = tested on: SK-MEL-28 melanoma
[47] = tested on: SK-MEL-5 melanoma
[48] = tested on: SK-OV-3 ovarian
[49] = tested on: SN12C renal
[50] = tested on: SNB-19 CNS
[51] = tested on: SNB-75 CNS
[52] = tested on: SW-620 colon
[53] = tested on: T-47D breast
[54] = tested on: TK-10 renal
[55] = tested on: U251 glioblastoma
[56] = tested on: UACC-257 melanoma
[57] = tested on: UACC-62 melanoma
[58] = tested on: UO-31 renal

`C=CC(=O)Nc1cccc(Nc2nc(Nc3ccc(N4CCN(C(C)=O)CC4)cc3OC)ncc2C(F)(F)F)c1` gave a GI50 [1] of 2.61 µM, a TGI [1] of 13.7 µM and a GI50 [2] of 1.81 µM. The TGI [2] was 9.76 µM, the GI50 [3] was 0.597 µM and the TGI [3] was 4.84 µM. It also gave a GI50 [4] of 1.94 µM, a TGI [4] of 19 µM and a GI50 [5] of 2.87 µM. The TGI [5] was 10.2 µM, the GI50 [6] was 1.91 µM and the TGI [6] was 6.28 µM. The GI50 [7] was 1.64 µM, the TGI [7] was 3.22 µM and the GI50 [8] was 1.34 µM. It also gave a TGI [8] of 3.19 µM, a GI50 [9] of 3.51 µM and a TGI [9] of 14 µM. The GI50 [10] was 1.07 µM, the TGI [10] was 3.72 µM and the GI50 [11] was 1.4 µM. The TGI [11] was 8.2 µM, the GI50 [12] was 3.04 µM and the TGI [12] was 13.1 µM. For the same molecule, the GI50 [13] was 2.17 µM, the TGI [13] was 8.75 µM and the GI50 [14] was 1.4 µM. For the same molecule, the TGI [14] was 2.74 µM, the GI50 [15] was 1.97 µM and the TGI [15] was 12.4 µM. For the same molecule, the GI50 [16] was 2.06 µM, the TGI [16] was 7.69 µM and the GI50 [17] was 1.9 µM. For the same molecule, the TGI [17] was 6.58 µM, the GI50 [18] was 1.8 µM and the TGI [18] was 5.07 µM. For the same molecule, the GI50 [19] was 0.493 µM, the TGI [19] was 2.09 µM and the GI50 [20] was 3.76 µM. It also gave a TGI [20] of 13.5 µM, a GI50 [21] of 2.16 µM and a TGI [21] of 14.4 µM. The GI50 [22] was 2.64 µM, the TGI [22] was 10.4 µM and the GI50 [23] was 1.94 µM. For the same molecule, the TGI [23] was 8.31 µM, the GI50 [24] was 2.39 µM and the TGI [24] was 8.83 µM. The GI50 [25] was 0.905 µM, the TGI [25] was 5.28 µM and the GI50 [26] was 3.46 µM. For the same molecule, the TGI [26] was 17.6 µM, the GI50 [27] was 4.73 µM and the TGI [27] was 17.1 µM. The GI50 [28] was 0.157 µM, the TGI [28] was 0.81 µM and the GI50 [29] was 0.521 µM. It also gave a TGI [29] of 1.87 µM, a GI50 [30] of 1.38 µM and a TGI [30] of 6.51 µM. For the same molecule, the GI50 [31] was 1.94 µM, the TGI [31] was 6.87 µM and the GI50 [32] was 1.22 µM. The TGI [32] was 3.35 µM, the GI50 [33] was 2.71 µM and the TGI [33] was 7.5 µM. It also gave a GI50 [34] of 0.288 µM, a TGI [34] of 1.55 µM and a GI50 [35] of 10.6 µM. It also gave a TGI [35] of 22.7 µM, a GI50 [36] of 2.05 µM and a TGI [36] of 5.91 µM. The GI50 [37] was 4.33 µM, the TGI [37] was 34.6 µM and the GI50 [38] was 2.33 µM. The TGI [38] was 14.6 µM, the GI50 [39] was 2.83 µM and the TGI [39] was 10.2 µM. For the same molecule, the GI50 [40] was 4.33 µM, the TGI [40] was 15.9 µM and the GI50 [41] was 1.89 µM. It also gave a TGI [41] of 5.16 µM, a GI50 [42] of 1.88 µM and a TGI [42] of 6.6 µM. For the same molecule, the GI50 [43] was 0.268 µM, the TGI [43] was 2.24 µM and the GI50 [44] was 6.74 µM. It also gave a TGI [44] of 19.8 µM, a GI50 [45] of 3.46 µM and a TGI [45] of 14.1 µM. The GI50 [46] was 10.2 µM, the TGI [46] was 23.9 µM and the GI50 [47] was 1.83 µM. For the same molecule, the TGI [47] was 8.62 µM, the GI50 [48] was 2.03 µM and the TGI [48] was 9.89 µM. For the same molecule, the GI50 [49] was 2.07 µM, the TGI [49] was 9.13 µM and the GI50 [50] was 8.32 µM. It also gave a TGI [50] of 20.9 µM, a GI50 [51] of 2.98 µM and a TGI [51] of 12.2 µM. The GI50 [52] was 1.75 µM, the TGI [52] was 3.45 µM and the GI50 [53] was 1.44 µM. The TGI [53] was 5.28 µM, the GI50 [54] was 1.62 µM and the TGI [54] was 4.78 µM. For the same molecule, the GI50 [55] was 5.04 µM, the TGI [55] was 17.2 µM and the GI50 [56] was 2.54 µM. The TGI [56] was 11.1 µM, the GI50 [57] was 2.36 µM and the TGI [57] was 11.8 µM. For the same molecule, the GI50 [58] was 2.26 µM and the TGI [58] was 9.61 µM.
